Data as given in patent US8912169B2, “Beta-lactamase inhibitors” (VenatoRx Pharmaceuticals, Inc., priority 2012, dated 2014).
Where two headings read alike, the source gives them in different places.

Columns and labels:
[1] = biological target: T1, SHV-5 (Klebsiella pneumoniae, UniProt P0A3M1); assay: β-lactamase enzyme inhibition, SHV-5; assay type: biochemical
T1 construct: made in house; host or cells: E. coli BL21(DE3)
Procedure, shortened: (§1)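 Native untagged β-lactamases expressed in E. coli BL21(DE3) and purified, then pre-incubated with inhibitor 15 min at 37 °C. Hydrolysis was followed by absorbance: 100 μM nitrocefin at 486 nm for p99 AmpC and OXA-1; imipenem at 300 nm for KPC-2; cefotaxime at 260 nm for SHV-5. IC50 from initial-rate inhibition versus uninhibited controls.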

[2] = biological target: T2, VIM-2 (Escherichia coli, UniProt Q5U7L7); assay: β-lactamase enzyme inhibition, VIM-2; assay type: biochemical; conditions: substrate Nitrocefin 100 μM, 486 nm; read-out: Class B VIM-2 IC50
T2 construct: made in house; host or cells: E. coli BL21(DE3)
Procedure, shortened: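 Purified VIM-2 (Q sepharose, 50 mM Hepes pH 7.5, >90% purity) preincubated with inhibitor 15 min at 37° C, then nitrocefin added at 100 μM final. Hydrolysis followed at 486 nm for 10 min; IC50 from initial rates versus inhibitor-free control wells.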

[3] = biological target: T3, p99 AmpC (Enterobacter cloacae, UniProt P05364); assay: β-lactamase enzyme inhibition, p99 AmpC; assay type: biochemical
T3 construct: made in house; host or cells: E. coli BL21(DE3)
Procedure, shortened: as §1

[4] = biological target: T4, OXA-1 (Escherichia coli, UniProt P13661); assay: β-lactamase enzyme inhibition, OXA-1; assay type: biochemical; conditions: substrate Nitrocefin 100 μM, 486 nm; read-out: Class D OXA-1 IC50
T4 construct: made in house; host or cells: E. coli BL21(DE3)
Procedure, shortened: as §1

[5] = biological target: T5, KPC-2 (Klebsiella pneumoniae, UniProt Q9F663); assay: β-lactamase enzyme inhibition, KPC-2; assay type: biochemical; conditions: substrate imipenem, 300 nm; read-out: Class A KPC-2 IC50
T5 construct: made in house; host or cells: E. coli BL21(DE3)
Procedure, shortened: as §1

[6] = test system: P. aerug. Ps296 VIM-2; assay: broth microdilution MIC, P. aeruginosa VIM-2; assay type: cell-based; conditions: for MIC of exemplary compounds in presence of fixed β-lactams, P. aerug. Ps296 VIM-2: Fixed Mero 4 μg/mL
From the text: (§2) To determine the ability of test compounds to potentiate the inhibition of the growth of bacterial strains that produce beta-lactamase enzymes, classic cell based broth microdilution MIC assays were employed. Six bacteria strains producing beta-lactamase enzymes were used: E. coli expressing the Class A Extended Spectrum Beta-Lactamase (ESBL) CTX-M-15, E. cloacae expressing the Class C P99, K. pneumoniae expressing the Class A carbapenemase KPC-3, P. aeruginosa expressing the Class B carbapenemase VIM-2, K. pneumoniae expressing the class A carbapenemase KPC-2 and the class B carbapenemase VIM-4, and S. aureus producing the Class A penicillinase PC-1. The assay was conducted in Cation Adjusted Mueller Hinton Broth (CAMHB, BD #212322, BD Diagnostic Systems, Sparks, Md.). Bacteria strains were grown for 3-5 hours in CAMBH broth. Test compounds were added to a microtiter plate in 2-fold serial dilutions in CAMHB in a final concentration range of 32 μg/mL to 0.25 μg/ml. An overlay of CAMHB containing a Beta-lactam was added to the compounds at a final static concentration of 4 μg/ml. […] In addition to the titration of test compounds the MICs of a panel of control beta-lactams is also tested to ensure the strains are behaving consistently from test to test. Once the test compound and antibiotics are added the plates can be inoculated according to CLSI broth microdilution method. After inoculation the plates are incubated for 16-20 hours at 37° C. then the Minimal Inhibitory Concentration (MIC) of the test compound is determined visually.
Using the methodology described above in EXAMPLE III, exemplary compounds for Formula I or Formula Ia were evaluated for their ability to inhibit the growth of β-lactamase producing bacteria in the presence of a β-lactam antibiotic.
Representative results are shown in Table 4 where A represents an MIC of the fixed β-lactam antibiotic in the presence of >32 μg/mL of a β-lactamase inhibitor of exemplary compounds, B represents the MIC in the presence of between 8 and 32 μg/mL of a β-lactamase inhibitor of exemplary compounds, and C represents the MIC in the presence of ≦4 μg/mL of a β-lactamase inhibitor of exemplary compounds. NT=Not Tested.

[7] = test system: E. cl. 144200 p99 AmpC; assay: broth microdilution MIC, E. cloacae P99; assay type: cell-based; conditions: Fixed CAZ 4 μg/mL
From the text: as §2
(§3) Using the methodology described above in EXAMPLE III, exemplary compounds for Formula I or Formula Ia were evaluated for their ability to inhibit the growth of β-lactamase producing bacteria in the presence of a β-lactam antibiotic. […]

[8] = test system: K.P. 156319 KPC-3; assay: broth microdilution MIC, K. pneumoniae KPC-3; assay type: cell-based; conditions: Fixed Mero 4 μg/mL
From the text: as §2, §3

[9] = test system: K.P. A-1797 KPC-2 VIM-4; assay: broth microdilution MIC, K. pneumoniae KPC-2 and VIM-4; assay type: cell-based; conditions: Fixed Mero 4 μg/mL
From the text: as §2, §3

[10] = test system: E. coli ESBL4 CTX-M-15; assay: broth microdilution MIC, E. coli CTX-M-15; assay type: cell-based; conditions: Fixed CAZ 4 μg/mL
From the text: as §2, §3

[11] = substrate Cefotaxime, 260 nm, read-out: Class A SHV-5 IC50
[12] = substrate Nitrocefin 100 μM, 486 nm, read-out: Class C AmpC IC50

CCNCCN[C@H]1CC[C@H](CC(=O)N[C@H]2Cc3cccc(C(=O)O)c3OB2O)CC1 [Example 78, (R)-3-(2-(trans-4-(2-(ethylamino)ethylamino)cyclohexyl)acetamido)-2-hydroxy-3,4-dihydro-2H-benzo[e][1,2]oxaborinine-8-carboxylic acid]
IC50 [1]: < 100 nM
IC50 [2]: < 100 nM
IC50 [3]: < 100 nM
IC50 [4]: < 100 nM
IC50 [5]: < 100 nM

CN(C)CCN[C@H]1CC[C@H](CC(=O)N[C@H]2Cc3cccc(C(=O)O)c3OB2O)CC1 [Example 79, (R)-3-(2-(trans-4-(2-(dimethylamino)ethylamino)cyclohexyl)acetamido)-2-hydroxy-3,4-dihydro-2H-benzo[e][1,2]oxaborinine-8-carboxylic acid]
IC50 [1]: < 100 nM
IC50 [2]: < 100 nM
IC50 [3]: < 100 nM
IC50 [4]: < 100 nM
IC50 [5]: < 100 nM

C[C@@H](O)[C@H]1C(=O)N2C(C(=O)O)=C(S[C@@H]3CN[C@H](C(=O)N(C)C)C3)[C@H](C)[C@H]12 [Meropenem, reference compound]
MIC ([6]; Pseudomonas aeruginosa, partner antibiotic alone, P. aeruginosa expressing VIM-2): 16 µg/mL

(3R)-3-[[2-[(1S,3S,4S)-3,4-bis(aminomethyl)cyclohexyl]acetyl]amino]-2-hydroxy-3,4-dihydro-1,2-benzoxaborinine-8-carboxylic acid and (3R)-3-[[2-[(1R,3R,4R)-3,4-bis(aminomethyl)cyclohexyl]acetyl]amino]-2-hydroxy-3,4-dihydro-1,2-benzoxaborinine-8-carboxylic acid [Example 18]
MIC of exemplary compounds in presence of fixed β-lactams, P. aerug. Ps296 VIM-2 [6]: C (C represents the MIC in the presence of ≦4 μg/mL of a β-lactamase inhibitor of exemplary compounds)
IC50 [1, 11]: < 100 nM
IC50 [2]: < 100 nM
MIC of exemplary compounds in presence of fixed β-lactams, E. cl. 144200 p99 AmpC [7]: C (C represents the MIC in the presence of ≦4 μg/mL of a β-lactamase inhibitor of exemplary compounds)
MIC of exemplary compounds in presence of fixed β-lactams, K.P. 156319 KPC-3 [8]: C (C represents the MIC in the presence of ≦4 μg/mL of a β-lactamase inhibitor of exemplary compounds)
IC50 [3, 12]: < 100 nM
MIC of exemplary compounds in presence of fixed β-lactams, K.P. A-1797 KPC-2 VIM-4 [9]: B (B represents the MIC in the presence of between 8 and 32 μg/mL of a β-lactamase inhibitor of exemplary compounds)
MIC of exemplary compounds in presence of fixed β-lactams, E. coli ESBL4 CTX-M-15 [10]: C (C represents the MIC in the presence of ≦4 μg/mL of a β-lactamase inhibitor of exemplary compounds)
IC50 [4]: < 100 nM
IC50 [5]: < 100 nM

(3R)-3-[[(1S,3S,4S)-3,4-diaminocyclohexanecarbonyl]amino]-2-hydroxy-3,4-dihydro-1,2-benzoxaborinine-8-carboxylic acid and (3R)-3-[[(1R,3R,4R)-3,4-diaminocyclohexanecarbonyl]amino]-2-hydroxy-3,4-dihydro-1,2-benzoxaborinine-8-carboxylic acid [Example 20]
MIC of exemplary compounds in presence of fixed β-lactams, P. aerug. Ps296 VIM-2 [6]: C (C represents the MIC in the presence of ≦4 μg/mL of a β-lactamase inhibitor of exemplary compounds)
IC50 [1, 11]: 1000 to 10000 nM
IC50 [2]: < 100 nM
MIC of exemplary compounds in presence of fixed β-lactams, E. cl. 144200 p99 AmpC [7]: C (C represents the MIC in the presence of ≦4 μg/mL of a β-lactamase inhibitor of exemplary compounds)
MIC of exemplary compounds in presence of fixed β-lactams, K.P. 156319 KPC-3 [8]: C (C represents the MIC in the presence of ≦4 μg/mL of a β-lactamase inhibitor of exemplary compounds)
IC50 [3, 12]: < 100 nM
MIC of exemplary compounds in presence of fixed β-lactams, K.P. A-1797 KPC-2 VIM-4 [9]: B (B represents the MIC in the presence of between 8 and 32 μg/mL of a β-lactamase inhibitor of exemplary compounds)
MIC of exemplary compounds in presence of fixed β-lactams, E. coli ESBL4 CTX-M-15 [10]: C (C represents the MIC in the presence of ≦4 μg/mL of a β-lactamase inhibitor of exemplary compounds)
IC50 [4]: 100 to 1000 nM
IC50 [5]: 100 to 1000 nM

(3R)-3-[[(3S,4S)-3,4-diaminocyclopentanecarbonyl]amino]-2-hydroxy-3,4-dihydro-1,2-benzoxaborinine-8-carboxylic acid and (3R)-3-[[(3R,4R)-3,4-diaminocyclopentanecarbonyl]amino]-2-hydroxy-3,4-dihydro-1,2-benzoxaborinine-8-carboxylic acid [Example 19]
MIC of exemplary compounds in presence of fixed β-lactams, P. aerug. Ps296 VIM-2 [6]: C (C represents the MIC in the presence of ≦4 μg/mL of a β-lactamase inhibitor of exemplary compounds)
IC50 [1, 11]: 100 to 1000 nM
IC50 [2]: < 100 nM
MIC of exemplary compounds in presence of fixed β-lactams, E. cl. 144200 p99 AmpC [7]: C (C represents the MIC in the presence of ≦4 μg/mL of a β-lactamase inhibitor of exemplary compounds)
MIC of exemplary compounds in presence of fixed β-lactams, K.P. 156319 KPC-3 [8]: C (C represents the MIC in the presence of ≦4 μg/mL of a β-lactamase inhibitor of exemplary compounds)
IC50 [3, 12]: < 100 nM
MIC of exemplary compounds in presence of fixed β-lactams, K.P. A-1797 KPC-2 VIM-4 [9]: C (C represents the MIC in the presence of ≦4 μg/mL of a β-lactamase inhibitor of exemplary compounds)
MIC of exemplary compounds in presence of fixed β-lactams, E. coli ESBL4 CTX-M-15 [10]: C (C represents the MIC in the presence of ≦4 μg/mL of a β-lactamase inhibitor of exemplary compounds)
IC50 [4]: < 100 nM
IC50 [5]: < 100 nM
